Measurements reported in patent publication US20040132803A1, “Agent for the treatment of overactive bladder” (priority 2003, published 2004).

Key:
spinal cord-injured rats = experiment: Inhibition of detrusor hyperreflexia, cystometry in spinal cord-injured rats; type: in vivo, rat
Excerpt: Spinal cord injury was induced in rats.

DRG cells = experiment: Current-clamp membrane potential in DRG cells; type: cell-based, rat; details: for Membrane potential (mV): current clamp
Procedure: Experiments were performed on adult female Sprague Dawley rats. A population of unidentified DRG cells and a population of DRG neurons that innervate the urinary bladder were labeled by retrograde axonal transport of the fluorescent dye, Fast Blue (4% w/v) (Polyloy, Gross Umstadt, Germany), injected into the wall of the bladder in halothane-anesthetized animals 7 days before the dissociation. The dye was injected with a 28 gauge needle at three to six sites on the dorsal surface of the organ (5-6 μL per site, total volume of 20-30 μL). Each injection site was washed with saline to minimize contamination of adjacent organs with the dye.
Freshly dissociated neurons from DRG were prepared from halothane-anesthetized animals. L6 and S1 DRG were dissected from animals and then dissociated in a shaking bath for 25 minutes at 35° C. with 5 mL DMEM (Sigma) containing 0.3 mg/mL trypsin (Type 3, Sigma), 1 mg/mL collagenase (Type 1, Sigma), and 0.1 mg/mL deoxyribonuclease (Type 4, Sigma). Trypsin inhibitor (Type 2a, Sigma) was then added thereto to neutralize the activity of trypsin. Individual DRG cell bodies were isolated by trituration and then plated on a poly-L-lysine-coated 35 mm Petri dishes.
Dye-labeled primary afferent neurons that innervate the urinary bladder were identified using an inverted phase-contrast microscope (Nikon, Tokyo, Japan) with fluorescent attachments (UV-1A filter; excitation wavelength, 365 nm). Gigaohm-seal whole-cell recordings were performed within 6-8 hours after cell dissociation at room temperature (20-22° C.) on each labeled neuron in a culture dish that usually contained three to seven labeled cells among a few hundred unlabeled neurons. The internal solution contained (in mmol/L): KCl 140, CaCl2 1, MgCl2 2, EGTA 11, HEPES 10, Mg-ATP 2, and Tris-GTP 0.4 adjusted to pH 7.4 with KOH. Patch electrodes had resistances of 1-4 M Ω when filled with the internal solution. Neurons were superfused at a flow rate of 1.5 mL/minutes with an external solution containing (in mmol/L): NaCl 150, KCl 5, CaCl2 2.5, MgCl2 1, HEPES 10, and D-glucose 10, adjusted to pH 7.4 with NaOH. All recordings were made with an Axopatch-1D patch-clamp amplifier (Axon Instruments, Foster City, Calif.), and data were acquired and analyzed by PCLAMP software (Axon Instruments).
In current-clamp recordings, membrane potential of DRG cells were measured before and after compound applications. The membrane potentials were normalized to control (before addition of the compound).

[1] = 0.001 mg/kg p.o., after 3 hours
[2] = 0.001 mg/kg p.o., after 5 hours

With `C[C@](O)(C(=O)Nc1cccc2c1C(=O)c1sccc1CS2(=O)=O)C(F)(F)F` [Compound 1, (S)-(+)-N-(5,5-dioxido-10-oxo-4,10-dihydrothieno[3,2-c][l]benzothiepin-9-yl)-3,3,3-trifluoro-2-hydroxy-2-methylpropanamide] the “effect on micturition (physiological) contraction” value (spinal cord-injured rats) was “had no influence”, the “effect on pre-micturition contraction (detrusor overactivity)” value (spinal cord-injured rats) was “inhibited” and the “micturition contraction, relative to before administration = 100” value (spinal cord-injured rats; 0.001 mg/kg p.o., after 1 hour) was 106.5 ± 11.3%. The “pre-micturition contraction, relative to before administration = 100” value (spinal cord-injured rats; 0.001 mg/kg p.o., after 1 hour) was 83.5 ± 6.8%, the “micturition contraction, relative to before administration = 100” value (spinal cord-injured rats; [1]) was 101.7 ± 9.5% and the “pre-micturition contraction, relative to before administration = 100” value (spinal cord-injured rats; [1]) was 95.4 ± 12.0%. The “micturition contraction, relative to before administration = 100” value (spinal cord-injured rats; [2]) was 103.1 ± 6.5%, the “pre-micturition contraction, relative to before administration = 100” value (spinal cord-injured rats; [2]) was 105.5 ± 20.8% and the “micturition contraction, relative to before administration = 100” value (spinal cord-injured rats; 0.01 mg/kg p.o., after 1 hour) was 114.4 ± 9.5%. For the same compound, the “pre-micturition contraction, relative to before administration = 100” value (spinal cord-injured rats; 0.01 mg/kg p.o., after 1 hour) was 59.6 ± 8.1 %, the “micturition contraction, relative to before administration = 100” value (spinal cord-injured rats; 0.01 mg/kg p.o., after 3 hours) was 117.6 ± 13.9% and the “pre-micturition contraction, relative to before administration = 100” value (spinal cord-injured rats; 0.01 mg/kg p.o., after 3 hours) was 51.2 ± 6.7 %. The “micturition contraction, relative to before administration = 100” value (spinal cord-injured rats; 0.01 mg/kg p.o., after 5 hours) was 117.6 ± 12.7%, the “pre-micturition contraction, relative to before administration = 100” value (spinal cord-injured rats; 0.01 mg/kg p.o., after 5 hours) was 42.2 ± 7.2 % and the “micturition contraction, relative to before administration = 100” value (spinal cord-injured rats; 0.1 mg/kg p.o., after 1 hour) was 109.3 ± 6.3%. The “pre-micturition contraction, relative to before administration = 100” value (spinal cord-injured rats; 0.1 mg/kg p.o., after 1 hour) was 52.3 ± 9.1 %, the “micturition contraction, relative to before administration = 100” value (spinal cord-injured rats; 0.1 mg/kg p.o., after 3 hours) was 110.2 ± 5.4% and the “pre-micturition contraction, relative to before administration = 100” value (spinal cord-injured rats; 0.1 mg/kg p.o., after 3 hours) was 33.3 ± 6.3 %. For the same compound, the “micturition contraction, relative to before administration = 100” value (spinal cord-injured rats; 0.1 mg/kg p.o., after 5 hours) was 112.4 ± 7.0%, the “pre-micturition contraction, relative to before administration = 100” value (spinal cord-injured rats; 0.1 mg/kg p.o., after 5 hours) was 28.5 ± 6.2 % and the “effect on membrane potential” value (DRG cells) was “hyperpolarization”. The “Membrane potential (mV)” value (DRG cells; 1.0 × 10^−6 mol/L) was −53.67 ± 0.74 mV, the “Membrane potential (mV)” value (DRG cells; 1.0 × 10^−7 mol/L) was −57.17 ± 0.53 mV and the “Membrane potential (mV)” value (DRG cells; 1.0 × 10^−8 mol/L) was −49.80 ± 0.65 mV. For the same compound, the “Membrane potential (mV)” value (DRG cells; 1.0 × 10^−9 mol/L) was −48.10 ± 0.48 mV, the “Membrane potential (mV)” value (DRG cells; 5.0 × 10^−4 mol/L) was −42.67 ± 1.46 mV and the “Membrane potential (mV)” value (DRG cells; 5.0 × 10^−5 mol/L) was −48.50 ± 1.28 mV. The “Membrane potential (mV)” value (DRG cells; 5.0 × 10^−6 mol/L) was −50.50 ± 0.88 mV.
